Results reported in US9763940B2, “Therapeutic use of P75 receptor antagonists” (Sanofi, priority 2011, dated 2017).
Structures can show the parent of a compound that is named as a salt.

Tests used:
[1] = system: SHR male rats, characterized by overactive bladder (OAB); experiment: Cystometry after acute oral treatment in SHR rats with spontaneous overactive bladder; type: in vivo, rat; conditions: % of control period, mean±SEM
Protocol: (§1) Male adult SHR/N Ico rats (250 g; Charles River Italy), were housed 7 days prior to the surgery with free access to standard chow and water. Animals were used in accordance with sanofi international ethical code and the international principles governing the care and treatment of laboratory animals, (E.E.E Council Directive 86/609, DJL358, 1 Cec. 12, 1987) in a fully accredited AAALAC facility.
(§2) A lower midline abdominal incision was performed under general anesthesia with 2-3% isoflurane using aseptic techniques. Their body temperature was maintained at 37° C. using a homeothermic blanket. Polyethylene tubing was inserted into the dome of the bladder and secured in place with a 6-0 nylon purse-string suture. The distal end of the tubing was sealed, tunneled subcutaneously, and externalized at the back of the neck, out of the animal's reach. At the moment of the surgery animals were 16 weeks old.
(§3) After one week from surgery, animals were placed in a Small Animal Cystometry Lab Station (MED Associates, St. Albans, Vt.) for urodynamic measurements. Prior to the start of recording the bladder was emptied and the catheter was connected via a T-tube to a pressure transducer and microinjection pump. Isotonic saline (0.9% NaCl at room temperature) was infused into the bladder at a rate of 10 ml per hour. An analytical balance beneath the wire-bottomed animal cage measured the amount of urine voided during continuous cystometry. A single cystometrogram is defined as the simultaneous recording of intravesical pressure, infused volume and voided volume during a single filling-voiding cycle. At least 4 reproducible micturition cycles are recorded (basal period) after the initial stabilization period of 25 to 30 minutes, using MED-CMG software (Catamount Research &Development Company).
Then, vehicle or compounds were administered orally at 2 ml/kg.
Due to kinetic profile of compounds, urodynamic assessment was performed 1 h after treatment and at least 4 reproducible micturition cycles were recorded.
The cystometrograms are analyzed using a specific software, SOF-552 cystometry data analysis.
The following endpoints have been considered (FIG. 1): • 1. Intercontraction intervals (sec) (ICI)—Time between micturition events (micturition interval) • 2. Threshold pressure (mmHg) (TP)—Bladder pressure immediately prior to micturition • 3. Maximum bladder pressure (mmHg) (Max P)—Highest bladder pressure associated with voiding • 4. Minimum bladder pressure (mmHg) (Min P)—Lowest bladder pressure during bladder filling • 5. Infused volume (μl) (Inf. Vol)—Volume of saline infused during the micturition cycle • 6. Average bladder pressure (mmHg) (Aver P)—Average bladder pressure during bladder filling Exclusion Criteria
In order to limit the impact of inter-group or intra-group variability, all data were expressed as % of control period (100%), as mean±standard error of mean (SEM) and were averaged per group of treatment. A one way analysis of variance (ANOVA), followed by Newman-Keuls' test or Dunnett's test, were used. A probability value of p<0.05 was regarded as significant.
Effects of an Acute Treatment with p75 Antagonists on Urodynamic Parameters in SHR Rats Characterized by Spontaneous Overactive Bladder (OAB)
• Vehicle: 0.5% Polysorbate 80 (PS80) solution in buffered methylcellulose (MC 0.6%) • Compound n°1 at 10 mg/kg: suspension (0.5% PS80 plus MC 0.6%) • Compound n°2 at 3, 10, 30 mg/kg: suspension (0.5% PS80 plus MC 0.6%) • Compound n°3 at 10 mg/kg: suspension (0.5% PS80 plus MC 0.6%) • Compound n°4 at 10 mg/kg: suspension (0.5% PS80 plus MC 0.6%) Experimental Design:
In order to investigate the role of compounds according to the invention in the micturition pathway, 5 groups of 4-12 rats are used: • Group 1, Vehicle per os (po) (n=10) • Group 2, Compound n°1 at 10 mg/kg po (n=12) • Group 3, Compound n°2 at 10 mg/kg po (n=6) • Group 4, Compound n°3 at 10 mg/kg po (n=4) • Group 5, Compound n°4 at 10 mg/kg po (n=5) […]

[2] = system: SHR male rats, characterized by overactive bladder (OAB); experiment: Cystometry after one-week chronic treatment in SHR rats with spontaneous overactive bladder; type: in vivo, rat; conditions: 10 mg/kg po for 7 days
Protocol: as §1, §2, §3
The cystometrograms are analyzed using a specific software, SOF-552 cystometry data analysis. […]
In order to limit the impact of inter-group or intra-group variability, all data were expressed as % of control period (100%), as mean±standard error of mean (SEM) and were averaged per group of treatment. […]

[3] = 10 mg/kg po, 1 h after treatment, FIG. 2
[4] = 10 mg/kg po, 1 h after treatment, FIG. 3

Compound	Intercontraction intervals (ICI) [1, 3]	Infused volume (bladder capacity) [1, 4]	Intercontraction intervals (ICI) ([1]; dose response, 3 mg/kg po, FIG. 4)	Infused volume (bladder capacity) ([1]; dose response, 3 mg/kg po, FIG. 5)	Intercontraction intervals (ICI) ([1]; dose response, 10 mg/kg po, FIG. 4)	Infused volume (bladder capacity) ([1]; dose response, 10 mg/kg po, FIG. 5)	Intercontraction intervals (ICI) ([1]; dose response, 30 mg/kg po, FIG. 4)	Infused volume (bladder capacity) ([1]; dose response, 30 mg/kg po, FIG. 5)	Effect on micturition pressure parameters ([2]; SHR rats)	Intercontraction intervals (ICI) ([2]; cystometry 24 h after last treatment, % of control values, mean±SEM, FIG. 6)	Infused volume (bladder capacity) ([2]; cystometry 24 h after last treatment, % of control values, mean±SEM, FIG. 7)
O=C(CN1CC2CCC(C1)N2c1cccnc1)N1CCc2nn(-c3ccccc3)cc2C1 [compound n°4, 1-(2-phenyl-2,4,6,7-tetrahydropyrazolo[4,3-c]pyridin-5-yl)-2-(8-pyridin-3-yl-3,8-diazabicyclo[3.2.1]oct-3-yl)ethanone]	186.3±26.9%	186.2±26.9%									
C[C@@H]1CN(c2ccc(C(=O)O)cn2)C[C@H](C)N1CC(=O)N1CC=C(c2cccc3ccoc23)CC1 [compound n°3, 6-{(3S,5R)-4-[2-(4-benzofuran-7-yl-3,6-dihydro-2H-pyridin-1-yl)-2-oxoethyl]-3,5-dimethylpiperazin-1-yl}nicotinic acid]	167.2±20.3%	167.14±20%									
C[C@@H]1CN(c2ccc(C(=O)O)cn2)C[C@H](C)N1CC(=O)N1CCc2nn(-c3ccccc3)cc2C1 [compound n°2, 6-{(3S,5R)-3,5-Dimethyl-4-[2-oxo-2-(2-phenyl-2,4,6,7-tetrahydropyrazolo[4,3-c]pyridin-5-yl)ethyl]piperazin-1-yl}nicotinic acid hydrochloride]	199.7±28.5%	198.9±28.3%	160.9±21.8%	160.8±21.7%	199.7±28.5%	198.9±28.3%	210.5±24.7%	209.9±24.5%	no effect	173.8±21.1%	173.7±21.1%
O=C(CN1CC2CCC(C1)N2c1ncc(F)cn1)N1CC=C(c2ccc(Cl)c(C(F)(F)F)c2)CC1 [compound n°1, 1-[4-(4-chloro-3-trifluoromethyl-phenyl)-3,6-dihydro-2H-pyridin-1-yl]-2-[8-(5-fluoro-pyrimidin-2-yl)-3,8-diaza-bicyclo[3.2.1]oct-3-yl]-ethanone]	195.5±15.4%	194.9±15.3%									
